Test results as given in patent US20230099441A1, “HETEROCYCLIC COMPOUND, APPLICATION THEREOF, AND COMPOSITION CONTAINING SAME” (GenEros Biopharma Ltd., priority 2019, published 2023).

Test system: STAT5 Y694 phosphorylation
Assay: Protein electrophoresis and blotting of STAT5 Y694 phosphorylation in Jurkat cells stimulated with human interferon beta
Assay type: cell-based
Settings: for Example of Effect 1: Inhibiting Ability (Protein Electrophoresis and Blotting): observed pSTAT5 bands at 10 μM and 100 μM; for Inhibiting Ratio (0% for vehicle control): 1 hour pretreatment, 20 ng/ml human interferon beta 30 minutes, pSTAT5/GAPDH
Procedure: Example of Effect 1: Protein Electrophoresis and Blotting Experiment
Standard protein electrophoresis and chemiluminescence imaging equipment (Bio-Rad);
Protein lysate RIPA (Lianke Biological; Cat #WB020); Western blot transfer membrane PVDF (Millipore; Cat #IPVH00010);
Jurkat cells (ATCC American Standard Culture Center, TIB152) were cultured in a 6-well plate at a density of 1×10^6/ml with RPMI medium […] 10% fetal bovine serum in a humidified incubator at 37° C. and maintained at 5% carbon dioxide overnight. On the second day, the cells were pretreated with compounds of different concentrations (the mother liquor of the compound prepared by dimethyl sulfoxide was diluted in the medium at the required concentration) for 1 hour, and then stimulated with 20 ng/ml human interferon beta for 30 minutes, it was mixed thoroughly and then placed in an incubator at 37° C. environment. […] Then an appropriate volume of RIPA Lysis Solution was added, it was mixed well, and placed on ice for 1 hour, inverted and mixed several times in the middle. Then, the cell lysate was centrifuged at 12000 rpm at 4° C. for 10 minutes, and the supernatant was transferred to another test tube, aliquoted and stored at −20° C. until use.
An equal volume of protein lysate was mixed with an appropriate 6-fold protein loading buffer (Biyun Tian Biochemical Company P0015F), and the mixture was heated at 95 degrees for 10 minutes, after full denaturation, the protein sample was added to the polyacrylamide gel (self-made, raw material purchased from Soleibao Biotechnology Company A1010, 30% acrylamide solution), and electrophoresis was performed at the appropriate voltage for 1 hour, until the strips were fully separated. It was transferred to a polyvinylidene fluoride membrane according to standard procedures, and blocked with 5% skim milk for 1 hour, and the specified antibody was added, and it was diluted 1:1000 in 3% bovine serum albumin, and it was incubated overnight for four degrees. It was thoroughly rinsed, incubated with the secondary antibody, exposed to chemiluminescence and signals were collected. ImageJ software was used to quantify the obtained chemiluminescence results. The same area was selected, the gray values of STAT5 phosphorylation band and GAPDH band of each sample were analyzed, and the ratio of pSTAT5/GAPDH level was calculated. The value of the solvent-treated sample was 100%, and the remaining samples were converted into relative data in the same proportion, that is, the percentage corresponding to the solvent sample. […] The solvent control group was the same as the test compound group except that DMSO was used instead of the DMSO solution of the test compound. N1 (Pimozide) was a specific positive control.

O=C(Cn1c(=O)[nH]c2ccccc21)N1CCC(O)(c2ccc(C(F)(F)F)cc2)CC1 [GEN1-085, 1-(2-(4-hydroxy-4-(4-(trifluoromethyl)phenyl)piperidin-1-yl)-2-oxoethyl)-1H-benzo[d]imidazol-2(3H)-one]
Example of Effect 1: Inhibiting Ability (Protein Electrophoresis and Blotting): −

COc1cccc2[nH]c(=O)n(C3CCN(C(=O)Cc4ccc(C(F)(F)F)cc4)CC3)c12 [GEN1-015, 7-methoxy-1-(1-(2-(4-(trifluoromethyl)phenyl)acetyl)piperidin-4-yl)-1H-benzo[d]imidazole-2(3H)-one]
Inhibiting Ratio (0% for vehicle control) (1 μM): 9.7% | Inhibiting Ratio (0% for vehicle control) (10 μM): 43.4% | Inhibiting Ratio (0% for vehicle control) (100 μM): 95.7% | Example of Effect 1: Inhibiting Ability (Protein Electrophoresis and Blotting): +

O=C(Cc1ccc(C(F)(F)F)cc1)N1CCC(N2C/C(=N\O)Nc3ccccc32)CC1 [GEN1-150, (E)-1-(4-(3-(hydroxyimino)-3,4-dihydroquinoxaline-1(2H)-yl)piperidin-1-yl)-2-(4-(trifluoromethyl)phenyl)ethane-1-one]
Example of Effect 1: Inhibiting Ability (Protein Electrophoresis and Blotting): −

O=C(N1CCC(n2c(=O)[nH]c3cccc(C(F)(F)F)c32)CC1)C1(c2ccc(C(F)(F)F)cc2)CC1 [GEN1-146, 7-(trifluoromethyl)-1-(1-(1-(4-(trifluoromethyl)phenyl)cyclopropane-1-carbonyl)piperidin-4-yl)-1,3-dihydro-2H-benzo[d]imidazol-2-one]
Example of Effect 1: Inhibiting Ability (Protein Electrophoresis and Blotting): +

O=c1c2ccc(-n3c(=O)[nH]c4ccccc43)cc2ccn1-c1ccc(C(F)(F)F)cc1 [GEN1-086, 6-(2-oxo-2,3-dihydro-1H-benzo[d]imidazol-1-yl)-2-(4-(trifluoromethyl)phenyl)isoquinoline-1(2H)-one]
Example of Effect 1: Inhibiting Ability (Protein Electrophoresis and Blotting): −

O=C(Cc1ccc2c(c1)OCO2)N1CCC(n2c(=O)[nH]c3ccccc32)CC1 [GEN1-096, 1-(1-(2-(benzo[d][1,3]dioxol-5-yl)acetyl)piperidin-4-yl)-1H-benzo[d]imidazol-2(3H)-one]
Example of Effect 1: Inhibiting Ability (Protein Electrophoresis and Blotting): +

O=C(Cc1ccc(C(F)(F)F)cc1)N1CCC(N2c3ccccc3NS2(=O)=O)CC1 [GEN1-054, 1-(4-(2,2-dioxybenzo[c] [1,2,5]thiadiazole-1(3H)-yl)piperidin-1-yl)-2-(4-(trifluoromethyl)phenyl)ethenone]
Example of Effect 1: Inhibiting Ability (Protein Electrophoresis and Blotting): −

O=C(Cc1ccc(C(F)(F)F)cc1)N1CCC(n2c(=O)[nH]c3ccncc32)CC1 [GEN1-043, 3-(1-(2-(4-(trifluoromethyl)phenyl)acetyl)piperidin-4-yl)-1H-imidazo[4,5-c]pyridin-2(3H)-one]
Example of Effect 1: Inhibiting Ability (Protein Electrophoresis and Blotting): −

O=C1CCN(C2CCN(C(=O)Cc3ccc(C(F)(F)F)cc3)CC2)c2ccccc2N1 [GEN1-102, 5-(1-(2-(4-(trifluoromethyl)phenyl)acetyl)piperidin-4-yl)-4,5-dihydro-1H-benzo[b][1,4]diazepine-2(3H)-one]
Example of Effect 1: Inhibiting Ability (Protein Electrophoresis and Blotting): +

O=C(CC(F)(F)F)N1CCC(n2c(=O)[nH]c3ccccc32)CC1 [Example X2, 1-(1-(3,3,3-trifluoropropionyl)piperidin-4-yl)-1H-benzo[d]imidazole-2(3H)-one]
Example of Effect 1: Inhibiting Ability (Protein Electrophoresis and Blotting): −

N#Cc1ccc2c(c1)[nH]c(=O)n2C1CCN(C(=O)Cc2ccc(C(F)(F)F)cc2)CC1 [GEN1-006, 2-oxo-1-(1-(2-(4-(trifluoromethyl)phenyl)acetyl)piperidin-4-yl)-2,3-dihydro-1H-benzo[d]imidazole-5-carbonitrile]
Inhibiting Ratio (0% for vehicle control) (1 μM): −2.8% | Inhibiting Ratio (0% for vehicle control) (10 μM): 35.7% | Inhibiting Ratio (0% for vehicle control) (100 μM): 94.8% | Example of Effect 1: Inhibiting Ability (Protein Electrophoresis and Blotting): +

NC(=O)N(c1ccccn1)C1CCN(C(=O)Cc2ccc(C(F)(F)F)cc2)CC1 [GEN1-164, 1-(pyridin-2-yl)-1-(1-(2-(4-(trifluoromethyl)phenyl)acetyl)piperidin-4-yl)urea]
Example of Effect 1: Inhibiting Ability (Protein Electrophoresis and Blotting): −

Cc1ccc(CC(=O)N2CCC(n3c(=O)[nH]c4ccccc43)CC2)cc1 [Example X7, 1-(1-(2-(p-tolyl)acetyl)piperidin-4-yl)-1H-benzo[d]imidazole-2(3H)-one]
Inhibiting Ratio (0% for vehicle control) (1 μM): −27.9% | Inhibiting Ratio (0% for vehicle control) (10 μM): −13.6% | Inhibiting Ratio (0% for vehicle control) (100 μM): 88.5% | Example of Effect 1: Inhibiting Ability (Protein Electrophoresis and Blotting): −

O=C(Cc1ccc2ccccc2c1)N1CCC(n2c(=O)[nH]c3ccccc32)CC1 [GEN1-073, 1-(1-(2-(naphth-2-yl)acetyl)piperidin-4-yl)-1H-benzo[d]imidazol-2(3H)-one]
Example of Effect 1: Inhibiting Ability (Protein Electrophoresis and Blotting): +

O=C1CN(C2CCN(C(=O)Cc3ccc4ncccc4c3)CC2)c2ccccc2N1 [GEN1-120, 4-(1-(2-(quinolin-6-yl)acetyl)piperidin-4-yl)-3,4-dihydroquinoxaline-2(1H)-one]
Example of Effect 1: Inhibiting Ability (Protein Electrophoresis and Blotting): −

O=C(Cc1ccncc1)N1CCC(n2c(=O)oc3ccccc32)CC1 [Example P3, 3-(1-(2-(pyridin-4-yl)acetyl)piperidin-4-yl)benzo[d]oxazole-2(3H)-one]
Example of Effect 1: Inhibiting Ability (Protein Electrophoresis and Blotting): −

CC(C)(C)c1ccc2[nH]c(=O)n(C3CCN(C(=O)Cc4ccc(C(F)(F)F)cc4)CC3)c2c1 [GEN1-088, 6-(tert-butyl)-1-(1-(2-(4-(trifluoromethyl)phenyl)acetyl)piperidin-4-yl)-1H-benzo[d]imidazol-2(3H)-one]
Example of Effect 1: Inhibiting Ability (Protein Electrophoresis and Blotting): +

O=C(Cc1ccc(C(F)(F)F)cc1)N1CCC(n2c(=O)[nH]c3cnccc32)CC1 [GEN1-042, 1-(1-(2-(4-(trifluoromethyl)phenyl)acetyl)piperidin-4-yl)-1H-imidazo[4,5-c]pyridin-2(3H)-one]
Example of Effect 1: Inhibiting Ability (Protein Electrophoresis and Blotting): +

O=C(Cc1ccc(C(F)(F)F)cc1)N[C@H]1CC[C@@H](n2c(=O)[nH]c3ccccc32)CC1 [GEN1-021, Cis-N-(4-(2-oxo-2,3-dihydro-1H-benzo[d]imidazol-1-yl)cyclohexyl)-2-(4-(trifluoromethyl)phenyl)acetamide]
Inhibiting Ratio (0% for vehicle control) (1 μM): −39.8% | Inhibiting Ratio (0% for vehicle control) (10 μM): −26.3% | Inhibiting Ratio (0% for vehicle control) (100 μM): 97.6% | Example of Effect 1: Inhibiting Ability (Protein Electrophoresis and Blotting): +

O=C(Cc1ccc(C(F)(F)F)cc1)NCc1ccc2c(c1)C(=O)NC2 [GEN1-084, N-((3-oxoisoindol-5-yl)methyl)-2-(4-(trifluoromethyl)phenyl)acetamide]
Example of Effect 1: Inhibiting Ability (Protein Electrophoresis and Blotting): +

O=C1CN(C2CCN(C(=O)Cc3ccc(C(F)(F)F)cc3)CC2)c2c(cccc2[N+](=O)[O-])N1 [GEN1-101, 5-nitro-4-(1-(2-(4-(trifluoromethyl)phenyl)acetyl)piperidin-4-yl)-3,4-dihydroquinoxaline-2(1H)-one]
Example of Effect 1: Inhibiting Ability (Protein Electrophoresis and Blotting): +

O=C(Cc1ccc(C(F)(F)F)cc1)N1CCC(n2c(=O)[nH]c3cccnc32)CC1 [GEN1-044, 3-(1-(2-(4-(trifluoromethyl)phenyl)acetyl)piperidin-4-yl)-1H-imidazo[4,5-b]pyridin-2(3H)-one]
Example of Effect 1: Inhibiting Ability (Protein Electrophoresis and Blotting): +

O=C1Nc2ccccc2C1C1CCN(C(=O)Cc2ccc(C(F)(F)F)cc2)CC1 (centres unmarked) [GEN1-051, 3-(1-(2-(4-(trifluoromethyl)phenyl)acetyl)piperidin-4-yl)indol-2-one]
Example of Effect 1: Inhibiting Ability (Protein Electrophoresis and Blotting): +
